From article PMC3428523, “Phase I study of the Aurora B kinase inhibitor barasertib (AZD1152) to assess the pharmacokinetics, metabolism and excretion in patients with acute myeloid leukemia” (Cancer Chemotherapy and Pharmacology, 2012)
Read-outs that look alike come from different tables or passages of the source. Marks after values point to notes of the source that are not given here.

Columns and labels:
[1] = Metabolite profiling of plasma, urine and feces by HPLC-RAD / HPLC-MSn; format: in vivo, human
Description: Samples of blood, urine and feces were collected prior to study treatment and at various time points during Cycle 1. […] A urine sample was collected within the 24-hour period prior to barasertib-SOI; feces samples within this 24-hour period were also collected. A urine sample was collected within the 24-hour period following barasertib-SOI.
Barasertib and barasertib-hQPA concentrations in plasma and urine were measured using liquid chromatography tandem mass spectrometry following solid-phase extraction (plasma) or dilution (urine). Plasma measurements were determined by an independent bioanalytical facility (PRA International—Early Development Services, Assen, The Netherlands). […] Radioactivity in weighed aliquots of plasma, urine, feces, whole blood and dose material was determined by liquid scintillation counting (LSC). Radioactivity concentrations in plasma and whole blood, and percentage dose excreted in urine and feces samples were calculated using LabLogic Debra 5TM (version 5.4.10.51). […] Extracts were concentrated to dryness and reconstituted in water/acetonitrile (95:5 v/v). […] The two extracts were combined, concentrated to dryness and reconstituted in water/acetonitrile (95:5 v/v). […] The first two 5 % formic acid/acetonitrile extracts were combined, concentrated to a small volume and reconstituted in water/acetonitrile (95:5 v/v). Metabolite profiling was determined using high-performance liquid chromatography–radiometric (HPLC-RAD) methodology, with metabolites identified by HPLC coupled with mass spectrometry (HPLC-MSn).

[2] = Urine pharmacokinetics of barasertib and barasertib-hQPA (LC-MS/MS) in patients with AML; format: in vivo, human
Description: (§1) This was an open-label, single-arm, single-center, Phase I study. Patients received barasertib 1,200 mg as a 7-day continuous intravenous infusion every 28 days. On Day 2 of Cycle 1 only, patients also received [^14C]-barasertib (250 μCi), administered as a 2-hour infusion. Based on preclinical studies in rat and dog, it was expected that an adequate recovery of total radioactivity, and thus comprehensive metabolite profiling, would be achieved following the administration of the specified [^14C]-barasertib regimen (data on file). On the completion of the [^14C]-barasertib infusion, administration of non-radiolabeled barasertib resumed for the remainder of the 7-day infusion period. Following Cycle 1, each patient could receive subsequent treatment cycles until disease progression or any other discontinuation criteria were met. For Cycle 1, patients remained as in-patients for up to 9 days following the start of the 7-day barasertib infusion (7 days of dosing plus 2 additional days for observation). For all subsequent cycles, patients were hospitalized for the infusion period only.
(§2) Samples of blood, urine and feces were collected prior to study treatment and at various time points during Cycle 1. Blood samples were collected approximately 30 min prior to start of infusion (SOI) on Day 1 (barasertib) and Day 2 ([^14C]-barasertib), and then every 24 h until Day 10 (216 h) and on Days 14 and 18 (312 and 408 h, respectively). In addition, samples were collected on Day 2: 1 h following the start of the [^14C]-barasertib infusion ([^14C]-SOI), 5 min prior to the end of [^14C]-barasertib infusion ([^14C]-EOI), and at 15 min, 1, 2, 4 and 8 h following [^14C]-EOI; and on Day 8: 5 min prior to the end of the barasertib infusion (EOI), and at 15 min, 1, 2, 4, 6 and 10 h following EOI. A urine sample was collected within the 24-hour period prior to barasertib-SOI; feces samples within this 24-hour period were also collected. A urine sample was collected within the 24-hour period following barasertib-SOI. Further, urine and feces samples were collected within 24-hour periods following [^14C]-SOI: 0–24, 24–48, 48–72, 72–96, 96–120, 120–144, 144–168 and 168–192 h.
Barasertib and barasertib-hQPA concentrations in plasma and urine were measured using liquid chromatography tandem mass spectrometry following solid-phase extraction (plasma) or dilution (urine). Plasma measurements were determined by an independent bioanalytical facility (PRA International—Early Development Services, Assen, The Netherlands). The lower limit of quantification (LLOQ) was 0.25 ng/mL for plasma samples and 1.00 μg/mL for urine samples. Radioactivity in weighed aliquots of plasma, urine, feces, whole blood and dose material was determined by liquid scintillation counting (LSC). Radioactivity concentrations in plasma and whole blood, and percentage dose excreted in urine and feces samples were calculated using LabLogic Debra 5TM (version 5.4.10.51). For metabolite profiling, plasma samples that were collected 5 min prior to [^14C]-EOI for each patient were prepared using 5 % formic acid in acetonitrile; extraction efficiencies were all >91 %. Extracts were concentrated to dryness and reconstituted in water/acetonitrile (95:5 v/v). […] Metabolite profiling was determined using high-performance liquid chromatography–radiometric (HPLC-RAD) methodology, with metabolites identified by HPLC coupled with mass spectrometry (HPLC-MSn).

[3] = Plasma pharmacokinetics of barasertib and barasertib-hQPA (LC-MS/MS), 7-day continuous infusion in patients with AML; format: in vivo, human; settings: for Time by which maximal plasma concentration was achieved: from start of infusion, first scheduled sample
Description: as §1, §2
Barasertib and barasertib-hQPA concentrations in plasma and urine were measured using liquid chromatography tandem mass spectrometry following solid-phase extraction (plasma) or dilution (urine). Plasma measurements were determined by an independent bioanalytical facility (PRA International—Early Development Services, Assen, The Netherlands). The lower limit of quantification (LLOQ) was 0.25 ng/mL for plasma samples and 1.00 μg/mL for urine samples. Radioactivity in weighed aliquots of plasma, urine, feces, whole blood and dose material was determined by liquid scintillation counting (LSC). Radioactivity concentrations in plasma and whole blood, and percentage dose excreted in urine and feces samples were calculated using LabLogic Debra 5TM (version 5.4.10.51). For metabolite profiling, plasma samples that were collected 5 min prior to [^14C]-EOI for each patient were prepared using 5 % formic acid in acetonitrile; extraction efficiencies were all >91 %. Extracts were concentrated to dryness and reconstituted in water/acetonitrile (95:5 v/v). Pooled urine samples were freeze-dried and then reconstituted in methanol (duplicate extracts); extraction efficiencies were all >94 %. The two extracts were combined, concentrated to dryness and reconstituted in water/acetonitrile (95:5 v/v). Pooled feces samples were extracted with hexane followed by 3 × 5 % formic acid in acetonitrile; extraction efficiencies ranged from 86 to 98 %. The first two 5 % formic acid/acetonitrile extracts were combined, concentrated to a small volume and reconstituted in water/acetonitrile (95:5 v/v). Metabolite profiling was determined using high-performance liquid chromatography–radiometric (HPLC-RAD) methodology, with metabolites identified by HPLC coupled with mass spectrometry (HPLC-MSn).

patients with AML [4] = test: Safety: adverse events graded by CTCAE version 3.0; format: in vivo, human
Description: (§3) Efficacy was assessed according to the International Working Group for AML trials criteria. Adverse events (AEs) were graded according to the National Cancer Institute Common Terminology Criteria for Adverse Events (CTCAE), version 3.0 [19].

patients with AML [5] = test: Efficacy: response by International Working Group AML criteria; format: in vivo, human
Description: The primary objective was to assess the PK, metabolism and excretion profiles of barasertib and barasertib-hQPA following a single 7-day intravenous infusion, including a short infusion of [^14C]-barasertib, to patients with AML. Secondary objectives were to assess the safety and tolerability of barasertib and to evaluate preliminary efficacy by measurement of individual patient response (based on the International Working Group AML clinical response criteria).
as §3

patients with AML [6] = test system: patients with AML; parameters: method as in PMID 21976672, PMID 21565405; settings: Phase I studies, Japanese and Western patients with AML; cited from earlier work
AML patients = settings: Phase I/II dose-escalation study; cited from earlier work
[7] = excreta (urine and feces), % of administered dose
[8] = plasma collected 5 min prior to [14C]-EOI, % of chromatogram radioactivity
[9] = urine, n=5, arithmetic mean (standard deviation)
[10] = human, plasma, iv, 1200 mg, plasma, n=4, barasertib 1,200 mg 7-day continuous i.v. infusion, geometric mean (coefficient of variation), read-out: AUC(0–t)
[11] = plasma, n=4, barasertib 1,200 mg 7-day continuous i.v. infusion, geometric mean (coefficient of variation)
[12] = Grade 3, barasertib 1,200 mg, n = 5
[13] = all grades, any cause, barasertib 1,200 mg, n = 5
[14] = all grades, barasertib 1,200 mg, n = 5

Compound: CCN(CCO)CCCOc1ccc2c(Nc3cc(CC(=O)O)[nH]n3)ncnc2c1 [Barasertib-hQPA desfluoroaniline]
- Retrieved radioactivity (%), range [1, 7]: 1.60–5.48%
- Retrieved radioactivity (%), range [1, 8]: 2.05^e %

Compound: CCN(CCO)CCCOc1ccc2c(Nc3cc(CC(=O)Nc4cccc(F)c4)[nH]n3)ncnc2c1 [Barasertib-hQPA, barasertib-hydroxyquinazoline-pyrazol-aniline]
- Retrieved radioactivity (%), range [1, 7]: 13.15–33.70%
- Retrieved radioactivity (%), range ([1]; excreta (urine and feces), % of administered dose, listed as barasertib-hQPA): 13.2–33.7%
- Retrieved radioactivity (%), range [1, 8]: 48.27–56.61%
- Geometric mean urine concentration ([2]; during the infusion period): 4 to 5 µg/mL
- CL renal ([2]; human, urine and plasma, intravenous, 1200 mg, urine, n=5, arithmetic mean (standard deviation), read-out: CLR, renal clearance of drug from plasma (converted)): 47.5 mL/min
- Ae, cumulative amount of unchanged drug excreted [2, 9]: 96.9 (47.2) mg
- fe, fraction of drug excreted into urine [2, 9]: 8.1 (3.9) %
- Geometric mean plasma concentration of barasertib-hQPA relative to barasertib ([3]; during the infusion period): approximately threefold
- Time by which maximal plasma concentration was achieved [3]: ≤ 24 h
- Difference between volumes of distribution (apparent) at steady state versus terminal phase ([3]; human, in vivo): fourfold
- clearance ([3]; human, intravenous, 1200 mg, plasma, n=4, arithmetic mean (standard deviation), read-out: CL, total clearance (converted)): 523 mL/min
- half-life ([3]; human, intravenous, 1200 mg, plasma, n=4, arithmetic mean (standard deviation), read-out: t½, terminal half-life (converted)): 66.3 h
- k el ([3]; human, intravenous, 1200 mg, plasma, n=4, arithmetic mean (standard deviation), read-out: λZ, slowest disposition rate constant (converted)): 5.56e-06 s⁻¹
- AUC ([3]; human, iv, 1200 mg, plasma, n=4, barasertib 1,200 mg 7-day continuous i.v. infusion, geometric mean (coefficient of variation)): 40400 ng·h/mL
- Vd ([3]; human, plasma, intravenous, 1200 mg, plasma, n=4, arithmetic mean (standard deviation), read-out: VSS, volume of distribution (apparent) at steady state): 669 L
- Vd ([3]; human, plasma, intravenous, 1200 mg, plasma, n=4, arithmetic mean (standard deviation), read-out: VZ, volume of distribution (apparent) during terminal (λZ) phase): 2800 L
- concentration at 408 h ([3]; human, plasma, intravenous, 1200 mg, 408 h (Day 18), read-out: Plasma concentration at final sampling point): ~4 ng/mL
- AUC(0-t) ([3]; human, plasma, iv, 1200 mg, plasma, n=4, barasertib 1,200 mg 7-day continuous i.v. infusion, geometric mean (coefficient of variation), read-out: AUC(0–192 h)): 38200 ng·h/mL
- AUC(0-t) [3, 10]: 40100 ng·h/mL
- CSS, steady-state drug concentration [3, 11]: 226.8 (0.4) ng/mL
- Plasma concentration as fraction of the plasma steady-state concentration ([3]; within 2 h post-EOI, rapid initial phase): one-third

Compound: CCN(CCCOc1ccc2c(Nc3cc(CC(=O)Nc4cccc(F)c4)n[nH]3)ncnc2c1)CCOP(=O)(O)O [Barasertib]
- Retrieved radioactivity (%), range [1, 8]: 17.26–26.53%
- Febrile neutropenia, number of patients (patients with AML [4]; [12]): 2
- Hypocalcemia, number of patients (patients with AML [4]; [12]): 1
- Hypomagnesemia, number of patients (patients with AML [4]; [12]): 1
- Stomatitis, number of patients (patients with AML [4]; [12]): 2
- Febrile neutropenia, number of patients (patients with AML [4]; Grade 4, barasertib 1,200 mg, n = 5): 1
- Nausea, number of patients (patients with AML [4]; [13]): 4
- Stomatitis, number of patients (patients with AML [4]; [13]): 4
- Alopecia, number of patients (patients with AML [4]; [14]): 3
- Constipation, number of patients (patients with AML [4]; [14]): 2
- Decreased appetite, number of patients (patients with AML [4]; [14]): 2
- Diarrhea, number of patients (patients with AML [4]; [14]): 2
- Fatigue, number of patients (patients with AML [4]; [14]): 2
- Febrile neutropenia, number of patients (patients with AML [4]; [14]): 3
- Headache, number of patients (patients with AML [4]; [14]): 2
- Hypocalcemia, number of patients (patients with AML [4]; [14]): 3
- Hypomagnesemia, number of patients (patients with AML [4]; [14]): 2
- Oral candidiasis, number of patients (patients with AML [4]; [14]): 2
- Peripheral edema, number of patients (patients with AML [4]; [14]): 2
- Vomiting, number of patients (patients with AML [4]; [14]): 3
- Patients who had died due to an AE (patients with AML [4]; at data cutoff, grade 5 multi-organ failure, considered unrelated to study treatment): one
- Changes in vital signs or ECG measurements (patients with AML [4]; barasertib 1,200 mg, n = 5): no clinically relevant changes
- Patients who experienced grade ≥3 AEs (patients with AML [4]; barasertib 1,200 mg, n = 5): three
- Urine concentration ([2]; all time points, LLOQ 1.00 μg/mL urine): below LLOQ
- Time after end of infusion at which plasma concentration reached the LLOQ ([3]; LLOQ 0.25 ng/mL plasma): ≤ 6 h
- Time by which maximal plasma concentration was achieved [3]: ≤ 24 h
- AUC(0-t) [3, 10]: 13800 ng·h/mL
- CSS, steady-state drug concentration [3, 11]: 85.6 (0.5) ng/mL
- Patients with no response (patients with AML [5]; four patients evaluable for response): three
- Patients achieving complete response / complete remission (patients with AML [5]; four patients evaluable for response, barasertib 1,200 mg 7-day infusion every 28 days): One
- Duration of complete response (patients with AML [5]; one patient): ~ 6 months
- Response rates (patients with AML [6]): 19–25%
- Maximum tolerated dose (MTD) (AML patients): 1,200 mg

Compound: Barasertib-hQPA N-oxide
- Retrieved radioactivity (%), range [1, 7]: 0.21–2.96%
